Test results published in US5677327A, “Method for identifying muscarinic agents lacking miotic side effects” (priority 1995, dated 1997).
Read-outs that look alike come from different tables or passages of the source.

Assays:
[1] = biological target: T1, human m3 receptor subtype (Homo sapiens, UniProt P20309); assay: Agonist-induced hydrolysis of inositol phospholipids (PI hydrolysis) in CHO-K1 cells expressing m3; type: cell-based; settings: for Emax: CHO-K1, 0.5 h, read-out: MAXIMUM RESPONSE BY MUSCARINIC AGONISTS, m3 cells; for EC50: CHO-K1 m3 cells, EC50 calculated as 50% of the maximum response of the PI hydrolysis, read-out: POTENCY ON PI HYDROLYSIS, EC 50, m3 cells
T1 construct: expressed in transfected cells
T1 sequence (P20309 whole entry): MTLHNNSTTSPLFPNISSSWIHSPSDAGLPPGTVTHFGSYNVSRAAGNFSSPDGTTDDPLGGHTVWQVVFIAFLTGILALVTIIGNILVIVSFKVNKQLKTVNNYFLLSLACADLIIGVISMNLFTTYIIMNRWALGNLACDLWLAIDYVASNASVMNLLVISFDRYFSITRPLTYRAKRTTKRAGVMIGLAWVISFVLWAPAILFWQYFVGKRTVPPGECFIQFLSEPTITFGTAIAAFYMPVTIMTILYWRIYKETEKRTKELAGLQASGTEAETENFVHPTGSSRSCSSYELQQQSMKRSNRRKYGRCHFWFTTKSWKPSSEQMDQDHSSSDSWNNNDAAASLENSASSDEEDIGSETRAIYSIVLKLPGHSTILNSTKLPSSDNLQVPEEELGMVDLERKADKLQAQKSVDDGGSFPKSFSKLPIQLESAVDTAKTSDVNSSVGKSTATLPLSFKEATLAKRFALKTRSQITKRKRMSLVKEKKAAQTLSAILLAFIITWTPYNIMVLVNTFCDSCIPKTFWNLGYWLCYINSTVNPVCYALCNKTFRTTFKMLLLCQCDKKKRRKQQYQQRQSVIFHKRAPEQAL
Procedure: (§1) Chinese hamster ovary (CHO-K1) cells stably expressing the human m3 or m5 receptor subtype were grown to confluency in DMEM/F12 medium containing 10% fetal calf serum and 1 unit/ml penicillin/streptomycin in a 37° C. incubator. Activity of muscarinic agonists in these cells was determined by measuring agonist induced hydrolysis of inositol phospholipids. Confluent cells plated at 0.1×10^6 cells/well in a 24-well dish were incubated in medium containing 4 μCi/ml myo-[2-^3 H] inositol overnight. This labels the inositol phospholipids in the cells. The next morning, the cells were washed to remove excess medium and incubated for 10 minutes before and 30 minutes after the addition of various muscarinic agonists in assay buffer containing 10 mM LiCl. The hydrolysis of inositol phospholipids generates inositol phosphates which were extracted and separated on dowex-formate columns and radioactivity determined. Radioactivity of the unhydrolyzed inositol phospholipids was also determined and percent hydrolysis calculated as a measure of agonist activity.
(§2) The EC50 was calculated as 50% of the maximum response of the PI hydrolysis

[2] = biological target: T2, human m5 receptor subtype (Homo sapiens, UniProt P08912); assay: Agonist-induced hydrolysis of inositol phospholipids (PI hydrolysis) in CHO-K1 cells expressing m5; type: cell-based; settings: for Emax: CHO-K1, 0.5 h; for EC50: CHO-K1 m5 cells, EC50 calculated as 50% of the maximum response of the PI hydrolysis, read-out: POTENCY ON PI HYDROLYSIS, EC 50, m5 cells; for m3/m5 ratio: ratio of EC50 at m3 to EC50 at m5, 30 min
T2 construct: expressed in transfected cells
T2 sequence (P08912 1-532): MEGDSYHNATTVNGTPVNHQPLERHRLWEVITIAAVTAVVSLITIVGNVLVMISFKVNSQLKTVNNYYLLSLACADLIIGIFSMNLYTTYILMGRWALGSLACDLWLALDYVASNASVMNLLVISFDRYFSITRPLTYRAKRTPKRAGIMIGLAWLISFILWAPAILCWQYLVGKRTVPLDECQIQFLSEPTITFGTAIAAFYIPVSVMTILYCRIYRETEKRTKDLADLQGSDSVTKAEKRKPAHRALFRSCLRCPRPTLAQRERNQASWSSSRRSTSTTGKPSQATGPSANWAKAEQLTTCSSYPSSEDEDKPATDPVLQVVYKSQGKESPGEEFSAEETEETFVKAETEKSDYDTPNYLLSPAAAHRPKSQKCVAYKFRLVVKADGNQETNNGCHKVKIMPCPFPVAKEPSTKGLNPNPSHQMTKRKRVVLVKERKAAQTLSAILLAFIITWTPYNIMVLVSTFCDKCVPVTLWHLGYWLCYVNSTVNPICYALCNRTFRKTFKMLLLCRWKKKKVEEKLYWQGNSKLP
Procedure: as §1, §2

[3] = Test for lowering IOP and miosis; type: in vivo; settings: for IOP-lowering: in vivo; for miosis: side effect when tested for lowering IOP
[4] = read-out: MAXIMUM RESPONSE BY MUSCARINIC AGONISTS, m5 cells, read-out: MAXIMUM RESPONSE BY […] AGONISTS, m5 cells

SMILES	Emax [1] [%]	EC50 [1] [µM]	Emax [2, 4] [%]	EC50 [2] [µM]	m3/m5 ratio [2]	IOP-lowering [3]	miosis [3]	Emax ([2]; read-out: hydrolysis elicited relative to carbachol at the m5 receptor) [%]	Emax ([2]; read-out: MAXIMUM RESPONSE BY MUSCARINIC AGONISTS, m5 cells) [%]
CC[C@H]1C(=O)NC[C@@H]1Cc1cncn1C [AGN 190456, 3R, 4R-ethyl-[(1-methyl-1H-imidazol-5-yl)methyl]-2-pyrrolidinone]	70 ± 7	20	84 ± 11	5	4	effective	minimal miosis	–	–
CC(=O)N(C)C(C)C#CCN1CCCC1 (centres unmarked) [BM-5, N-Methyl-N-(1-methyl-4-pyrrolidino-2-butynyl)acetamide]	30 ± 3	0.3	30 ± 2	0.06	5	IOP-lowering	miosis	30	–
CC1CCC(=O)N1CC#CCN1CCC1 (centres unmarked) [BR-370, N-(4-Azetidinyl-2-butynyl)-5-methyl-2-pyrrolidone]	96 ± 40	0.8	–	0.7	–	–	–	–	110 ± 8
C[N+](C)(C)CCOC(N)=O [CARBACHOL, carbachol]	–	–	100	–	–	–	–	–	–
